# Read-outs that look alike come from different tables or passages of the source.
# Columns and labels:
# R17 = assay: r-17 bacteriophage assay: R17 treated with compound and UVA, remaining titer by plaque count on Hfr 3000 bacteria; format: cell-based; details: for R17 inactivation efficiency compared with AMT: varying concentration (Tables 7 and 8, FIGS. 6-10); for efficiency at inactivating R17 compared with AMT: constant concentration, varying doses of UV light 1.0-3.0 J/cm^2 (FIGS. 11-17)
# Description: In the r-17 assay, the bacteriophage was placed in a solution with each compound tested and was then irradiated. The ability of the phage to subsequently infect bacteria and inhibit their growth was measured. The bacteriophage was selected for its relatively accessible nucleic acid such that the culture growth inhibition would accurately reflect nucleic acid damage by the test compounds. The bacteriophage assay for nucleic acid binding to test compounds offers a safe and inexpensive procedure to identify compounds likely to display efficient pathogen inactivation. Previous experiments support that the r-17 assay accurately measures HIV-1 sensitivity to similar compounds. […] Modified Eagles Medium (DMEM) to a final phage concentration of 10^9/mL. An aliquot (0.5 mL) was transferred to a 1.5 mL snap-top polyethylene tube. […] Louis, MO). The tubes were placed in a light device as described in EXAMPLE 1 and irradiated for between 1 and 10 minutes. […] To make the dilutions. a 0.100 mL aliquot of the irradiated solution of phage and test compound was added to the first dilution tube of 0.4 mL of media then 0.020 mL of this solution was added to the second tube of 0.5 mL medium (1:25). […] After the top agar hardened, the plates were incubated at 37 °C overnight. The plaque forming units were then counted the following morning and the titer of the phage remaining after phototreatment was calculated based on the dilution factors. The following controls were run: the "phage only" in which phage was not treated with test compound and not irradiated (listed as "starting titer" in the tables below); the "UV only" in which the phage was irradiated in the absence of test compound; and the "dark" control in which the phage/test compound solution was not irradiated before it was diluted and plated. Compounds described herein were also tested at a constant concentration for varying doses of UV light. […] The compound tested was added at the desired concentration and the samples were vortexed. […] Between each 1.0 J/cm^2 intervals, 100µL was removed from each sample and placed in the first corresponding dilution tube, then five sequential dilutions were performed for each compound tested, at all 3 irradiation doses, as described above in this example. […] The contents of each tube was poured into its own LB plate and the plates were incubated overnight at 37 °C. Plaques were counted by visual inspection the following morning.
# HIV-1 = details: 1 Minute Irradiation
# Description: Pathogen inactivation efficiency of several compounds described herein was evaluated by examining the ability of the compounds to inactivate cell-free virus (HIV). Inactivation of cell-free HIV was performed as follows.
# As in the R17 assay, small aliquots of the compounds listed in TABLES 10 and 11, below, at the concentrations listed in the table, were added to stock HIV-1 to a total of 0.5 mL. The stock HIV (10^5 - 10^7 plaque forming units/mL) was in DMEM/15% FBS. […] Controls included HIV-I stock only, HIV-1 plus UVA only, and HIV-I plus the highest concentration of each psoralen tested, with no UVA. Post irradiation. all samples were store frozen at -70° C until assayed for infectivity by a microtiter plaque assay. Aliquots for measurement of residual HIV infectivity in the samples treated with a compound of the present invention were withdrawn and cultured.
# Residual HIV infectivity was assayed using an MT-2 infectivity assay. […] The assay medium was 85% DMEM (with a high glucose concentration) containing 100 µg of streptomycin, 100 U of penicillin, 50 µg of gentamicin, and 1 µg of amphotericin B per mL, 15% FBS and 2 µg of Polybrene (Sigma Chemical Co., St. Louis, Mo.) per mL. Test and control samples from the inactivation procedure were diluted in 50% assay medium and 50% normal human pooled plasma. The samples were serially diluted directly in 96-well plates (Coming Glass Works, Coming, N.Y.). The plates were mixed on an oscillatory shaker for 30 seconds and incubated at 37°C in a 5% CO2 atmosphere for 1 to 18 hours. […] After an additional 1 hour of incubation at 37°C in 5% CO2, 0.075 mL of assay medium containing 1.6% SeaPlaque agarose (FMC Bioproducts, Rockland, Maine) and prewarmed to 38.5°C was added to each well. The plates were kept at 37°C for a few minutes until several plates had accumulated and then centrifuged in plate carriers at 600 x g for 20 minutes in a centrifuge precooled to 10°C. In the centrifuge, cell monolayers formed prior to gelling of the agarose layer. The plates were incubated for 5 days at 37°C in 5% CO2 and stained by the addition of 0.05 mL of 50 µg/mL propidium iodide (Sigma Chemical Co.) in phosphate-buffered saline (pH 7.4) to each well. After 24 to 48 hours, the red fluorescence-stained microplaques were visualized by placing the plates on an 8,000 µW/cm^2 304 nm UV light box (Fotodyne, Inc., New Berlin, Wis.). The plaques were counted at a magnification of x20 to x25 through a stereomicroscope.
# [1] = tested on: Salmonella typhimurium tester strains TA97a, TA98, TA100, TA102, TA1537 and TA1538
# Source text: The second property that is important in testing a compound for use in methods described herein is mutagenicity. The most widely used mutagen/carcinogen screening assay is the Ames test. This assay is described by D.M. Maron and B.N. Ames in Mutation Research 113:173 ( 1983) and a specific screen is described in detail in Example 17, below. The Ames test utilizes several unique strains of Salmonella typhimurium that are histidine- dependent for growth and that lack the usual DNA repair enzymes. The frequency of normal mutations that render the bacteria independent of histidine (i.e., the frequency of spontaneous revertants) is low. The test allows one to evaluate the impact of a compound on this revenant frequency.
# Because some substances are not mutagenic by themselves, but are converted to a mutagen by metabolic action, the compound to be tested is mixed with the bacteria on agar plates along with the liver extract. The liver extract serves to mimic metabolic action in an animal.
# The mixtures are allowed to incubate. Growth of bacteria (if any) is checked by counting colonies.
# In this example the compounds described herein are tested for their dark mutagenicity using an Ames assay. The procedures used for the Salmonella mutagenicity test as described in detail by Maron and Ames were followed exactly. Maron, D.M. and B.N. Ames, Mutation Research 113: 173 ( 1983). A brief description for each procedure is given here. The tester strains TA97a, TA98, TA 100, TA102, TA1537 and TA1538 were obtained from Dr. Ames. TA97a, TA98, TA1537 and TA1538 are frameshift tester strains. TA100 and TA102 are base-substitution tester strains. Upon receipt each strain was cultured under a variety of conditions to confirm the genotypes specific to the strains.
# The first tests done with the strains were to determine the range of spontaneous reversion for each of the strains. With each mutagenicity experiment the spontaneous reversion of the tester strains to histidine independence was measured and expressed as the number of spontaneous revertants per plate. This served as the background controls.
# For all experiments, the pre-incubation procedure was used. In this procedure one vial of each tester strain was thawed and 20 µL of this culture was added to 6 mL of Oxoid Nutrient Broth #2. This solution was allowed to shake for 10 hours at 37°C. In the pre-incubation procedure, 0.1 mL of this overnight culture was added to each of the required number of sterile test tubes. To half of the tubes 0.5 mL of a 10% S-9 solution containing Aroclor 1254 induced rat liver extract (Molecular Toxicology Inc., Annapolis, MD), and MgCl2, KCl, glucose-6-phosphate, NADP, and sodium phosphate buffer (Sigma, St. Louis, Missouri) were added. To the other half of the tubes 0.5 mL of 0.2M sodium phospate buffer, pH 7.4, was used in place of the S-9 mixture (the - S9 samples). Finally 0.1 mL of the test solution containing either 0, 0.1, 0.5, 1, 5, 10, 50, 100, 250, or 500 µg/mL of the test compound was added. The 0.7 mL mixture was vonexed and then pre-incubated while shaking for 20 minutes at 37°C. After shaking, 2 mL of molten top agar supplemented with histidine and biotin were added to the 0.7 mL mixture and immediately poured onto a minimal glucose agar plate (volume of base agar was 20 mL). The top agar was allowed 30 minutes to solidify and then the plates were inverted and incubated for 44 hours at 37°C. After incubation the number of revertant colonies on each plate were counted.
# Maron and Ames (1983) describe the conflicting views with regard to the statistical treatment of data generated from the test.
# [2] = 16 µM, 1 Minute irradiation = 1.2 J/cm^2, Starting Titer Approx. 7.1 Logs (Table 8)
# [3] = 32 µM, 1 Minute irradiation = 1.2 J/cm^2, Starting Titer Approx. 7.1 Logs (Table 8)
# [4] = 64 µM, 1 Minute irradiation = 1.2 J/cm^2, Starting Titer Approx. 7.1 Logs (Table 8)
# [5] = 16 µM, HIV Starting Titer Approximately 5 Logs (Table 10)
# [6] = 32 µM, HIV Starting Titer Approximately 5 Logs (Table 10)
# [7] = 64 µM, HIV Starting Titer Approximately 5 Logs (Table 10)
# [8] = two-fold or greater increase in revertants above background and dose dependent response
# [9] = 16 µM, HIV Starting Titer Approximately 5.4 Logs (Table 11)
# [10] = 32 µM, HIV Starting Titer Approximately 5.4 Logs (Table 11)
# [11] = 64 µM, HIV Starting Titer Approximately 5.4 Logs (Table 11)
smiles,measurement,setting,value
"Cc1oc2c(C)c3oc(=O)cc(C)c3cc2c1CNCCCN [Compound 5, 4'-(5-amino-2-aza)pentyl4,5',8-trimethylpsoralen]",R17 Log Kill,R17; [2],5.6
same,R17 Log Kill,R17; [3],>6.1
same,R17 Log Kill,R17; [4],>6.1
same,R17 inactivation efficiency compared with AMT,R17,significantly higher inactivation efficiency than does AMT
same,HIV Log Kill,HIV-1; [5],0.9
same,HIV Log Kill,HIV-1; [6],1.3
same,HIV Log Kill,HIV-1; [7],>2.6
"Cc1oc2c(C)c3oc(=O)cc(C)c3cc2c1COCCCN [Compound 4, 4'-(5-amino-2-oxa)pentyl-4,5',8-trimethylpsoralen]",R17 Log Kill,R17; [2],2.3
same,R17 Log Kill,R17; [3],4.3
same,R17 Log Kill,R17; [4],>6.1
same,"revertant colonies, TA100 +S9",[1]; 5 µg/plate,-10
same,"revertant colonies, TA100 -S9",[1]; 5 µg/plate,-41
same,"revertant colonies, TA1538 +S9",[1]; 5 µg/plate,7
same,"revertant colonies, TA1538 -S9",[1]; 5 µg/plate,-2
same,"revertant colonies, TA100 +S9",[1]; 10 µg/plate,-3
same,"revertant colonies, TA100 -S9",[1]; 10 µg/plate,3
same,"revertant colonies, TA1538 +S9",[1]; 10 µg/plate,-2
same,"revertant colonies, TA1538 -S9",[1]; 10 µg/plate,-2
same,"mutagenic response (Ames, summary)",[1]; [8],no mutagenicity
same,HIV Log Kill,HIV-1; [6],2.2
same,HIV Log Kill,HIV-1; [7],>3.6
"Cc1cc(=O)oc2c(C)c3oc(CNCCN)c(C)c3cc12 [Compound 16, 5'-(4-amino-2-aza)butyl4,4',8-trimethylpsoralen]",R17 inactivation efficiency compared with AMT,R17,significantly higher inactivation efficiency than does AMT
"OO [hydrogen peroxide, reference compound]","revertant colonies, TA102 -S9","[1]; Salmonella typhimurium, pH 7.4",660
"Cc1oc2c(C)c3oc(=O)cc(C)c3cc2c1CCN [Compound 3, 4'-(2-aminoethyl)-4,5',8-trimethylpsoralen]",R17 Log Kill,"R17; 8 µM, 1 Minute Irradiation, Starting Titer Approx. 7.2 Logs (Table 7)",>6.2
same,R17 Log Kill,"R17; 8 µM, 1 Minute irradiation = 1.2 J/cm^2, Starting Titer Approx. 7.1 Logs (Table 8)",5.6
same,R17 Log Kill,"R17; 16 µM, 1 Minute Irradiation, Starting Titer Approx. 7.2 Logs (Table 7)",>6.2
same,R17 Log Kill,R17; [2],>6.1
same,R17 Log Kill,"R17; 32 µM, 1 Minute Irradiation, Starting Titer Approx. 7.2 Logs (Table 7)",>6.2
same,R17 inactivation efficiency compared with AMT,R17,significantly higher inactivation efficiency than does AMT
same,"revertant colonies, TA100 +S9",[1]; 5 µg/plate,-19
same,"revertant colonies, TA100 -S9",[1]; 5 µg/plate,47
same,"revertant colonies, TA1538 +S9",[1]; 5 µg/plate,1
same,"revertant colonies, TA1538 -S9",[1]; 5 µg/plate,0
same,"revertant colonies, TA100 +S9",[1]; 10 µg/plate,8
same,"revertant colonies, TA100 -S9",[1]; 10 µg/plate,47
same,"revertant colonies, TA1538 +S9",[1]; 10 µg/plate,9
same,"revertant colonies, TA1538 -S9",[1]; 10 µg/plate,-6
same,"mutagenic response (Ames, summary)",[1]; [8],no mutagenicity
same,HIV Log Kill,HIV-1; [6],2.7
same,HIV Log Kill,HIV-1; [7],>3.8
"Cc1oc2c(C)c3oc(=O)cc(C)c3cc2c1COCCOCCN [Compound 7, 4'-(7-amino-2,5-oxa)heptyl-4.5',8-trimethylpsoralen]",R17 Log Kill,"R17; 16 µM, 1 Minute Irradiation, Starting Titer Approx. 7.1 Logs (Table 9)",>6
same,R17 Log Kill,"R17; 32 µM, 1 Minute Irradiation, Starting Titer Approx. 7.1 Logs (Table 9)",>6
same,R17 Log Kill,"R17; 64 µM, 1 Minute Irradiation, Starting Titer Approx. 7.1 Logs (Table 9)",>6
same,HIV Log Kill,HIV-1; [5],0.8
same,HIV Log Kill,HIV-1; [6],2.1
same,HIV Log Kill,HIV-1; [7],3.5
"Cc1oc2c(C)c3oc(=O)cc(C)c3cc2c1COCCOCCNCCCCN [Compound 8, 4'-(12-amino-8-aza-2,5-dioxa)dodecyl-4,5',8-trimethylpsoralen]",HIV Log Kill,HIV-1; [5],1.1
same,HIV Log Kill,HIV-1; [6],1.9
same,HIV Log Kill,HIV-1; [7],3.7
"Cc1oc2c(C)c3oc(=O)cc(C)c3cc2c1CNCCCCCN [Compound 10, 4'-(7-amino-2-aza)heptyl-4,5',8-trimethylpsoralen]",efficiency at inactivating R17 compared with AMT,R17,more efficient at inactivating R17 than was AMT
same,HIV Log Kill,HIV-1; [9],2.0
same,HIV Log Kill,HIV-1; [10],>3.5
same,HIV Log Kill,HIV-1; [11],>3.5
"Cc1oc2c(C)c3oc(=O)cc(C)c3cc2c1CNCCCOCCCCOCCN [Compound 9, 4'-(13-amino-2-aza-6,11-dioxa)tridecyl-4,5',8-trimethylpsoralen]",HIV Log Kill,HIV-1; [9],0.8
same,HIV Log Kill,HIV-1; [10],1.4
same,HIV Log Kill,HIV-1; [11],2.7
"[N-]=[N+]=[N-] [sodium azide, reference compound]","revertant colonies, TA100 -S9",[1]; 1.5 µg/plate (positive control),965
same,"revertant colonies, TA1538 -S9 (Table 18 (A))","[1]; 1.5 µg/plate (positive control), Table 18 (A), background 126",965
"Nc1c2ccccc2nc2ccccc12 [9-Amino-acridine, reference compound]","revertant colonies, TA98 -S9",[1]; 10 µg/plate,284
same,"revertant colonies, TA1537 -S9",[1]; 10 µg/plate,284
"Cc1oc2c(C)c3oc(=O)cc(C)c3cc2c1CNCCCNCCCN [Compound 12, 4'-(9-amino-2,6-diaza)nonyl-4.5',8-trimethylpsoralen]",efficiency at inactivating R17 compared with AMT,R17,more efficient at inactivating R17 than was AMT
same,HIV Log Kill,HIV-1; [9],0.4
same,HIV Log Kill,HIV-1; [10],0.8
same,HIV Log Kill,HIV-1; [11],1.3
"Cc1oc2c(C)c3oc(=O)cc(C)c3cc2c1CNCCCNCCCCNCCCN [Compound 15, 4'-(14-amino-2,6,11-triaza)tetradecyl-4,5',8-trimethylpsoralen]",efficiency at inactivating R17 compared with AMT,R17,more efficient at inactivating R17 than was AMT
"Cc1oc2c(C)c3oc(=O)cc(C)c3cc2c1CNCCN [Compound 1, 4'-(4-amino-2-aza)butyl-4,5',8-trimethylpsoralen]",Logs Killed,"R17; Experiment 2, compound only (3.2 µM), no uva",0.1
same,"revertant colonies, TA100 +S9",[1]; 5 µg/plate,-24
same,"revertant colonies, TA100 -S9",[1]; 5 µg/plate,292
same,"revertant colonies, TA1538 +S9",[1]; 5 µg/plate,21
same,"revertant colonies, TA1538 -S9",[1]; 5 µg/plate,10
same,"revertant colonies, TA100 +S9",[1]; 10 µg/plate,-22
same,"revertant colonies, TA100 -S9",[1]; 10 µg/plate,337
same,"revertant colonies, TA1538 +S9",[1]; 10 µg/plate,22
same,"revertant colonies, TA1538 -S9",[1]; 10 µg/plate,12
same,"frameshift mutagenicity (Ames, summary)",[1]; [8],weak frameshift mutagen in TA1538 at 5 µg/plate in the presence of S9
same,"base-substitution mutagenicity (Ames, summary)","[1]; two-fold or greater increase in revertants above background and dose dependent response, TA100, TA102","displayed mutation in the TA100 strain, but only in the absence of S9"
same,HIV Log Kill,HIV-1; [7],2.1

# From patent EP0840781B1, “METHODS AND DEVICES FOR THE REMOVAL OF PSORALENS FROM BLOOD PRODUCTS” (Cerus Corporation, priority 1995, dated 1996)
